# From EPA's ToxRefDB 2
# Columns and labels:
# rat [1] = details: Subchronic inhalation toxicity, wistar, Whole-Body, dose end: 13 week, group: systemic, systemic / pathology microscopic / lung / alveolar macrophages + systemic / in life observation / body weight / body weight
# rat [2] = details: Subchronic inhalation toxicity, wistar, Whole-Body, dose end: 13 week, group: systemic, systemic / clinical chemistry / alanine aminotransferase (alt/sgpt) / alanine aminotransferase (alt/sgpt) + systemic / clinical chemistry / …
# rat [3] = details: Subchronic inhalation toxicity, wistar, Whole-Body, dose end: 13 week, group: systemic
# rat [4] = details: Subchronic inhalation toxicity, wistar, Whole-Body, dose end: 13 week, group: systemic, systemic / pathology microscopic / lung / alveolar macrophages + systemic / pathology microscopic / lung / fibrosis + systemic / pathology …
# rat [5] = details: Carcinogenicity, fischer, Oral, Feed, dose end: 2 year, group: systemic
# rat [6] = details: Prenatal developmental toxicity study, fischer, Oral, Gavage/Intubation, dose end: 15 GD
# rat [7] = details: Subchronic oral toxicity in rodents, fischer, Feed, dose end: 13 week, group: systemic
# mouse [8] = details: Subchronic oral toxicity in rodents, cd1, Water, dose end: 90 day, group: systemic, systemic / hematology / leukocyte (wbc) count differential / leukocyte (wbc)
# rat [9] = details: Multigenerational reproductive toxicity study, wistar, Oral, Feed, dose end: 2 generation
# mouse [10] = details: Subchronic oral toxicity in rodents, b6c3f1, Feed, dose end: 13 week, group: systemic
# mouse [11] = details: Carcinogenicity, b6c3f1, Oral, Feed, dose end: 2 year, group: systemic
# rat [12] = details: Combined chronic toxicity/carcinogenicity; fischer; Oral; Feed; dose end: 104 week; group: systemic; systemic / pathology microscopic / kidney / hemosiderosis
# rat [13] = details: Subchronic oral toxicity in rodents, sprague dawley, Feed, dose end: 90 day, group: systemic
# dog [14] = details: Subchronic oral toxicity in nonrodent, beagle, Feed, dose end: 13 week, group: systemic
# mouse [15] = details: Subchronic oral toxicity in rodents, cd1, Feed, dose end: 13 week, group: systemic
# mouse [16] = details: Subchronic oral toxicity in rodents, cd1, Feed, dose end: 90 day, group: systemic
# rat [17] = details: Subchronic oral toxicity in rodents, fischer, Feed, dose end: 13 week, group: systemic; remark: listed apart in the source
# mouse [18] = details: Subchronic oral toxicity in rodents, cd1, Feed, dose end: 13 week, group: systemic; remark: listed apart in the source
# dog [19] = details: Chronic toxicity, beagle, Oral, Feed, dose end: 12 month, group: systemic
# [20] = systemic / pathology microscopic / lung / alveolar macrophages + systemic / pathology microscopic / lung / cholesterol cleft(s) + systemic…
# [21] = systemic / in life observation / food consumption / food consumption
# [22] = group: developmental, developmental / developmental malformation / bone / delayed ossification + developmental / developmental malformation / bone / unossified + …
# [23] = group: maternal, systemic / in life observation / body weight / body weight + systemic / in life observation / body weight / body weight gain + systemic / in…
# [24] = group: maternal, systemic / in life observation / body weight / body weight gain + systemic / in life observation / clinical signs / urogenital staining
# [25] = systemic / in life observation / body weight / body weight + systemic / pathology microscopic / bone marrow / atrophy + systemic / in life …
# [26] = group: offspring, systemic / pathology gross / mammary gland / discolored + systemic / pathology gross / mammary gland / enlarged
# [27] = group: parental, systemic / in life observation / clinical signs / body surface staining + systemic / in life observation / body weight / body weight + …
# [28] = group: parental, systemic / organ weight / pituitary gland / absolute + systemic / organ weight / pituitary gland / relative to body weight
# [29] = group: reproductive, reproductive / reproductive performance / implantations / implantations
# [30] = systemic / pathology microscopic / liver / necrosis
# [31] = systemic / in life observation / body weight / body weight
# [32] = systemic / in life observation / body weight / body weight + systemic / in life observation / food consumption / food consumption
# [33] = systemic / in life observation / body weight / body weight + systemic / in life observation / body weight / body weight gain + systemic / in…
# [34] = systemic / clinical chemistry / potassium / potassium
# [35] = systemic / organ weight / thymus / absolute + systemic / organ weight / thymus / relative to body weight + systemic / pathology gross / …
# [36] = systemic / organ weight / kidney / absolute + systemic / organ weight / kidney / relative to body weight + systemic / pathology microscopic…
# [37] = systemic / clinical chemistry / albumin / albumin
# [38] = systemic / organ weight / kidney / absolute + systemic / organ weight / liver / absolute + systemic / organ weight / liver / relative to …
# [39] = systemic / pathology gross / gallbladder / [other] + systemic / pathology gross / gallbladder / distended + systemic / pathology microscopic…
smiles,measurement,setting,value
O=[Si]=O [Silica],LEL,rat [1],0.03 ppm
same,LOAEL,rat [1],> 0.03 ppm
same,NEL,rat [1],< 0.03 ppm
same,NOAEL,rat [1],≥ 0.03 ppm
same,LEL,rat [2],0.06 ppm
same,LOAEL,rat [2],> 0.06 ppm
same,NEL,rat [2],< 0.06 ppm
same,NOAEL,rat [2],≥ 0.06 ppm
same,LOAEL,rat [3]; [20],> 0.03 ppm
same,NOAEL,rat [3]; [20],≥ 0.03 ppm
same,LEL,rat [3]; systemic / pathology microscopic / lung / proliferation,0.001 ppm
same,LEL,rat [4],0.03 ppm
same,LOAEL,rat [4],> 0.03 ppm
same,NEL,rat [4],< 0.03 ppm
same,NOAEL,rat [4],≥ 0.03 ppm
"Oc1ccc(Cl)cc1Cl [2,4-Dichlorophenol]",LEL,rat [5]; [21],120 mg/kg/day
same,NEL,rat [5]; [21],< 120 mg/kg/day
same,LOAEL,rat [5]; systemic / pathology microscopic / nose / degeneration,210 mg/kg/day
same,LEL,rat [6]; [22],750 mg/kg/day
same,LOAEL,rat [6]; [22],> 750 mg/kg/day
same,NEL,rat [6]; [22],375 mg/kg/day
same,NOAEL,rat [6]; [22],≥ 750 mg/kg/day
same,LOAEL,rat [6]; [23],> 750 mg/kg/day
same,NOAEL,rat [6]; [23],≥ 750 mg/kg/day
same,LEL,rat [6]; [24],200 mg/kg/day
same,NEL,rat [6]; [24],< 200 mg/kg/day
same,LOAEL,rat [7]; systemic / in life observation / body weight / body weight + systemic / pathology microscopic / bone marrow / atrophy,1000 mg/kg/day
same,NEL,rat [7]; [25],250 mg/kg/day
same,NOAEL,rat [7]; [25],500 mg/kg/day
same,LEL,rat [7]; systemic / pathology microscopic / bone marrow / atrophy,500 mg/kg/day
same,LEL,mouse [8],383 mg/kg/day
same,LOAEL,mouse [8],> 383 mg/kg/day
same,NEL,mouse [8],114 mg/kg/day
same,NOAEL,mouse [8],≥ 383 mg/kg/day
same,LOAEL,"rat [9]; group: offspring, developmental / developmental malformation / eye / open eye + systemic / in life observation / body weight / offspring (pup) weight",543 mg/kg/day
same,NOAEL,"rat [9]; group: offspring, developmental / developmental malformation / eye / open eye + systemic / in life observation / body weight / offspring (pup) weight + …",134 mg/kg/day
same,LEL,rat [9]; [26],49.1 mg/kg/day
same,NEL,rat [9]; [26],< 49.1 mg/kg/day
same,LOAEL,rat [9]; [27],543 mg/kg/day
same,NOAEL,rat [9]; [27],134 mg/kg/day
same,LEL,rat [9]; [28],33.4 mg/kg/day
same,NEL,rat [9]; [28],< 33.4 mg/kg/day
same,LEL,rat [9]; [29],768 mg/kg/day
same,LOAEL,rat [9]; [29],768 mg/kg/day
same,NEL,rat [9]; [29],194 mg/kg/day
same,NOAEL,rat [9]; [29],194 mg/kg/day
same,NOAEL,mouse [10]; systemic / in life observation / body weight / body weight + systemic / in life observation / clinical signs / fur (altered appearance) + …,1500 mg/kg/day
same,LOAEL,mouse [10]; systemic / in life observation / body weight / body weight + systemic / pathology microscopic / liver / necrosis + systemic / pathology …,3000 mg/kg/day
same,LEL,mouse [10]; [30],375 mg/kg/day
same,NEL,mouse [10]; [30],< 375 mg/kg/day
same,LOAEL,mouse [11]; [31],430 mg/kg/day
same,NOAEL,mouse [11]; [31],< 430 mg/kg/day
same,LEL,mouse [11]; [32],430 mg/kg/day
same,NEL,mouse [11]; [32],< 430 mg/kg/day
CCCCOC(=O)[C@@H](C)Oc1ccc(Oc2ccc(C#N)cc2F)cc1 [Cyhalofop-butyl],LEL,rat [12],3.44 mg/kg/day
same,LOAEL,rat [12],3.44 mg/kg/day
same,NEL,rat [12],0.823 mg/kg/day
same,NOAEL,rat [12],0.823 mg/kg/day
same,LOAEL,rat [13]; [33],800 mg/kg/day
same,NOAEL,rat [13]; [33],400 mg/kg/day
same,LEL,rat [13]; systemic / organ weight / liver / absolute + systemic / organ weight / liver / relative to body weight + systemic / pathology gross / liver…,25 mg/kg/day
same,LEL,dog [14]; [34],3.17 mg/kg/day
same,NEL,dog [14]; [34],< 3.17 mg/kg/day
same,LOAEL,dog [14]; [35],75.2 mg/kg/day
same,NOAEL,dog [14]; [35],14.7 mg/kg/day
same,LOAEL,mouse [15]; [36],30 mg/kg/day
same,NOAEL,mouse [15]; [36],10 mg/kg/day
same,LEL,mouse [15]; systemic / organ weight / liver / relative to body weight,3 mg/kg/day
same,NEL,mouse [15]; systemic / pathology microscopic / liver / inflammation + systemic / pathology microscopic / liver / necrosis + systemic / organ weight / …,1 mg/kg/day
same,LEL,mouse [16]; systemic / organ weight / liver / absolute,3.6 mg/kg/day
same,NEL,mouse [16]; systemic / organ weight / liver / absolute + systemic / in life observation / clinical signs / alopecia + systemic / organ weight / liver / …,0.4 mg/kg/day
same,LOAEL,mouse [16]; systemic / pathology gross / kidney / enlarged + systemic / pathology microscopic / kidney / hypertrophy,14.1 mg/kg/day
same,NOAEL,mouse [16]; systemic / pathology gross / kidney / enlarged + systemic / pathology microscopic / kidney / hypertrophy + systemic / organ weight / kidney…,4.3 mg/kg/day
same,LEL,rat [17]; [37],1.72 mg/kg/day
same,NEL,rat [17]; [37],< 1.72 mg/kg/day
same,NOAEL,rat [17]; systemic / clinical chemistry / albumin / albumin + systemic / pathology microscopic / kidney / [other] + systemic / pathology microscopic…,60.5 mg/kg/day
same,LOAEL,rat [17]; systemic / pathology microscopic / kidney / [other] + systemic / pathology microscopic / kidney / pigmentation + systemic / pathology …,190 mg/kg/day
same,LOAEL,mouse [18]; [38],> 350 mg/kg/day
same,NOAEL,mouse [18]; [38],≥ 350 mg/kg/day
same,LEL,mouse [18]; systemic / pathology gross / liver / foci,3 mg/kg/day
same,NEL,mouse [18]; systemic / pathology gross / liver / foci + systemic / clinical chemistry / alkaline phosphatase (alp/alk) / alkaline phosphatase (alp/alk…,1 mg/kg/day
same,LEL,dog [19]; systemic / in life observation / body weight / body weight + systemic / in life observation / body weight / body weight gain,7.59 mg/kg/day
same,NEL,dog [19]; systemic / in life observation / body weight / body weight + systemic / in life observation / body weight / body weight gain + systemic / …,1.22 mg/kg/day
same,LOAEL,dog [19]; [39],> 45.9 mg/kg/day
same,NOAEL,dog [19]; [39],≥ 45.9 mg/kg/day
